Several values for one entry are separate records, joined by “and”; a condition that tells them apart may be missing. Equal values may be shown once. Entries after “also recorded” stand apart in the source; their conditions may differ. Read-outs that look alike come from different tables or passages of the source.
Assays:
[1] = reputed; EPO Publication No. 0184162; cited from earlier work
[2] = test system: mouse T lymphocytes; assay: T-cell proliferation assay (ionomycin plus PMA induced, tritiated thymidine uptake); format: cell-based, mouse (C57B1/6)
Procedure: The principle of this assay is to measure the proliferation of mouse T lymphocytes stimulated with the combination of ionomycin plus PMA. A positive sample in this assay will inhibit T-cell proliferation, as indicated by reduced tritiated thymidine uptake.
Purified L-685,487, as prepared by HPLC above, was dissolved in absolute ethanol at 1 mg/ml.
Spleens from C57B1/6 mice were taken under sterile conditions and gently dissociated in ice-cold RPMI 1640 culture medium (GIBCO, Grand Island, N.Y.) supplemented with 10% heat-inactivated fetal calf serum (GIBCO). Cells were pelleted by centrifugation at 1500 rpm for 8 minutes. Contaminating red cells were removed by treating the pellet with ammonium chloride lysing buffer (GIBCO) for 2 minutes at 4° C. Cold medium was added and cells were again centrifuged at 1500 rpm. for 8 minutes. T lymphocytes were then isolated by separation of the cell suspension on nylon wool columns as follows: Nylon wool columns were prepared by packing approximately 4 grams of washed and dried nylon wool into 20 ml plastic syringes. The columns were sterilized by autoclaving at 250° F. for 30 minutes. Nylon wool columns were wetted with warm (37° C.) culture medium and rinsed with the same medium. Washed spleen cells resuspended in warm medium were slowly applied to the nylon wool. The columns were then incubated in an upright position at 37° C. for 1 hour. Non-adherent T lymphocytes were eluted from the columns with warm culture medium and the cell suspensions were spun as above.
Purified T lymphocytes were resuspended at 2.5×10^5 cells/ml in complete culture medium composed of RPMI 1640 medium with 10% heat-inactivated fetal calf serum, […] glutamine, 1 mM sodium pyruvate, 2×10^-5 M 2-mercaptoethanol and 50 μg/ml gentamycin. Ionomycin was added at 250 ng/ml and PMA at 10 ng/ml. The cell suspension was immediately distributed into 96 well flat-bottom microculture plates (Costar) at 200 μl/well. The control, being the medium without test drug, and various below-indicated dilutions of the sample (above-describedpurified L-683,756) to be tested were then added in triplicate wells at 20 μl/well. L-679,934 was used as a standard. The culture plates were then incubated at 37° C. in a humidified atmosphere of 5% CO2 -95% air for 44 hours. The proliferation of T lymphocytes was assessed by measurement of tritiated thymidine incorporation. After 44 hours of culturing, the cells were pulse-labelled with 2 μ Ci/well of tritiated thymidine (NEN, Cambridge, Mass.). After another 4 hours of incubation, cultures were harvested on glass fiber filters using a multiple sample harvester. Radioactivity of filter discs corresponding to individual wells was measured by standard liquid scintillation counting methods (Betacounter). Mean counts per minute of replicate wells were calculated and the results expressed as percent inhibition of tritiated thymidine uptake (proliferation) as follows: [formula]

[3] = Solubility (physical characteristics); format: physicochemical; conditions: methanol

## C=CC[C@@H]1/C=C(\C)C[C@H](C)C[C@H](OC)[C@H]2O[C@@](O)(C(=O)C(=O)N3CCCC[C@H]3C(=O)O[C@H](/C(C)=C/[C@@H]3CC[C@@H](O)[C@H](OC)C3)[C@H](C)[C@@H](O)CC1=O)[C@H](C)C[C@@H]2OC [FK-506]
[1]
  effectiveness relative to cyclosporin: 100 times

## CC[C@@H]1/C=C(\C)CC(C)C[C@H](OC)C(O)[C@@H]2CC(C)C(O)(O2)C(=O)C(=O)N2CCCC[C@H]2C(=O)O[C@H](/C(C)=C/[C@@H]2CC[C@@H](O)C(OC)C2)[C@H](C)C(O)CC1=O (stereo partly drawn) [L-685,487]
[2]; Mus musculus, T-lymphocyte, 0.58 ng/ml
  inhibition at 0.00058 µg/mL: 0%
[2]; Mus musculus, T-lymphocyte, 0.87 ng/ml
  inhibition at 0.00087 µg/mL: 0%
[2]; Mus musculus, T-lymphocyte, 1.3 ng/ml
  inhibition at 0.0013 µg/mL: 9%
[2]; Mus musculus, T-lymphocyte, 1.9 ng/ml
  inhibition at 0.0019 µg/mL: 10%
[2]; Mus musculus, T-lymphocyte, 2.9 ng/ml
  inhibition at 0.0029 µg/mL: 10%
[2]; Mus musculus, T-lymphocyte, 4.4 ng/ml
  inhibition at 0.0044 µg/mL: 39%
[2]; Mus musculus, T-lymphocyte, 6.6 ng/ml
  inhibition at 0.0066 µg/mL: 71%
[2]; Mus musculus, T-lymphocyte, 9.9 ng/ml
  inhibition at 0.0099 µg/mL: 88%
[2]; Mus musculus, T-lymphocyte, 15.0 ng/ml
  inhibition at 0.015 µg/mL: 92%
[2]; Mus musculus, T-lymphocyte, 22.0 ng/ml
  inhibition at 0.022 µg/mL: 98%
[2]; Mus musculus, T-lymphocyte, 33.0 ng/ml
  inhibition at 0.033 µg/mL: 99%
[2]; Mus musculus, T-lymphocyte, 50.0 ng/ml
  inhibition at 0.05 µg/mL: 99%
[2]; Mus musculus, T-lymphocyte, T-cell proliferation, 3H-thymidine pulse 4 hours, harvest at 48 hours, read-out: IC50
  IC50: 0.0049 µg/mL and 6.3 nM
[2]; Mus musculus, T-lymphocyte, generally in the range, read-out: IC50, general range
  IC50: 6 to 12 nM
[2]; addition of 50 units/m of recombinant human IL2
  Inhibition of proliferation upon addition of IL2: Inhibition of proliferation was reversed
[2]; qualitative
  inhibition of T-cell activation (immunosuppressive activity): positive inhibition of T-cell activation; also recorded: positive immunosuppressive activity
[3]
  Solubility: Solubility in methanol

## C=CC[C@@H]1/C=C(\C)C[C@H](C)C[C@H](OC)[C@H]2O[C@@](O)(C(=O)C(=O)N3CCCC[C@H]3C(=O)O[C@H](/C(C)=C/[C@@H]3CC[C@@H](O)[C@H](OC)C3)[C@H](C)[C@@H](O)CC1=O)[C@H](C)C[C@@H]2OC.O [L679,934, reference compound]
[2]; 10 ng/ml
  % inhibition, standard: 99%
